Read-outs that look alike come from different tables or passages of the source. *1 amine or outer side, *2 acyl side, *3 side chain or, on linkers, in order; H or OH if unused. Where a SMILES comes first, the peptide text is derived from it. Bridges are numbered along the chain shown (N, C = ends). [ ]: non-standard residue; d: D form. The star is where a group is joined. TATA = O=C(CC[*:1])N1CN(C(=O)CC[*:2])CN(C(=O)CC[*:3])C1; NOTA = O=C(O)CN1CCN(CC(=O)O)CCN(CC(=O)*)CC1; Hyp = O=C(O)[C@@H]1C[C@@H](O)CN1; hArg = N=C(N)NCCCC[C@H](N)C(=O)O; PEG2 = NCCOCCOCCC(=O)O; Sar = CNCC(=O)O
Test: Ex vivo biodistribution
Set-up: species or system NSG mice
Conditions: both sexes, NSG, mouse, in vivo, iv, 80 uCi, total radioactivity, mean ± SEM (n = 4 or 5); for tissue uptake at 5 min / tissue to tissue ratio at 5 min: 5 min p.i.; for tissue uptake at 5 min / tissue uptake at 0.5 h / tissue uptake at 1 h / tissue uptake at 1.5 h / tissue uptake at 2 h: i.v.; for tissue to tissue ratio at 5 min / tissue to tissue ratio at 0.5 h / tissue to tissue ratio at 1 h / tissue to tissue ratio at 1.5 h: dimensionless; for tissue uptake at 0.5 h / tissue to tissue ratio at 0.5 h: 30 min p.i.; for tissue uptake at 1 h / tissue to tissue ratio at 1 h: 60 min p.i.; for tissue uptake at 1.5 h / tissue to tissue ratio at 1.5 h: 90 min p.i.; for tissue uptake at 2 h: 120 min p.i.
Description: Animal studies were performed under Johns Hopkins University Animal Care and Use Committee (ACUC)-approved protocol (Principal investigator: Sridhar Nimmagadda, Ph.D. and Protocol number M021M175). Male and Female NSG mice (5-6 weeks old) were purchased from JHU immunocompromised core and used to establish xenografts by administering cells subcutaneously (top right flank, unless otherwise noted) to form various tumor models within 3-4 weeks. Following cell numbers were used: Panc1, AsPC1, BxPC3 (1 M), Hs766T and SU8686 (2 M), CFPAC and Panc1005 (5 M). Imaging or biodistribution studies (n = 3-5) were conducted on mice with tumor volumes of 100-200 mm^3. The Panc1 orthotopic tumor model was established by surgically implanting a 3-5 mm^3 section of Panc1 tumor xenograft directly onto the pancreas. The implanted tumors were allowed to grow and were ready for imaging after 10 days of implantation.
Mice with 100-200 mm^3 tumor volume were used for ex vivo biodistribution studies. For radiotracer pharmacokinetics and dosimetry studies, mice with Panc1 tumor xenograft received ~80 µCi (2.96 MBq) [^68Ga]AJ201 and were sacrificed at pre-determined time points (5, 30, 60, 90 and 120 min). All other mice were injected with ~50 µCi (1.85 MBq; 0.2 to 0.5 nmol) Ga-68 labeled radiotracer and were sacrificed at 60 min. The selected tissues were collected, weighed, counted, and their %ID/g values calculated for biodistribution analysis. For pharmacokinetics and dosimetry studies, selected tissues included blood, muscle, tumor, thymus, heart, lung, liver, pancreas, stomach, small intestine, large intestine, spleen, adrenals, kidney, bladder, femur, brain and tumor xenografts. For other studies, selected tissues were blood, muscle, tumor, heart, lung, liver, pancreas, small intestine, spleen, kidney.

[1] = read-out: Stomach with contents uptake

SMILES: CC(C)C[C@@H]1NC(=O)[C@@H]2CSCCC(=O)N3CN(CN(C3)C(=O)CCSC[C@H](NC(=O)[C@H](CC(=O)O)NC(=O)[C@H](CCCCNC(=N)N)NC(=O)[C@H](C)NC(=O)CNC(=O)CN(C)C(=O)CN(C)C(=O)CN(C)C(=O)[C@H](CCCNC(=N)N)NC(=O)CNC(=O)CCOCCOCCNC(=O)CN3CCN(CC(=O)O)CCN(CC(=O)O)CC3)C(=O)N3C[C@H](O)C[C@H]3C(=O)N[C@@H](CC(C)C)C(=O)N[C@@H](C(C)C)C(=O)N[C@@H](CC(N)=O)C(=O)N3CCC[C@H]3C(=O)N[C@@H](CC(C)C)C(=O)N2)C(=O)CCSC[C@@H](C(N)=O)NC(=O)[C@H](CCCCNC(=N)N)NC(=O)[C@H](Cc2c[nH]c3ccccc23)NC(=O)[C@@H](CC(=O)O)NC(=O)[C@@H]2CCCN2C(=O)[C@H](Cc2c[nH]cn2)NC1=O [[^68Ga]AJ201, metal not drawn] ({NOTA-PEG2}-GR[Sar][Sar][Sar]GA[hArg]DC[Hyp]LVNPLCLHP[dD]W[hArg]C-NH2; linker 10-17-24 via TATA)
- tissue uptake at 5 min (read-out: Blood uptake): 8.2 ± 0.92 %ID/g
- tissue uptake at 5 min (read-out: Brain uptake): 0.4 ± 0.08 %ID/g
- tissue uptake at 5 min (read-out: Heart uptake): 4.19 ± 1.06 %ID/g
- tissue uptake at 5 min (read-out: Liver uptake): 4.25 ± 0.99 %ID/g
- tissue uptake at 5 min (read-out: Lung uptake): 8.24 ± 0.93 %ID/g
- tissue uptake at 5 min (read-out: Muscle uptake): 1.79 ± 0.24 %ID/g
- tissue uptake at 5 min (read-out: Pancreas uptake): 3.24 ± 0.08 %ID/g
- tissue uptake at 5 min [1]: 1.8 ± 0.39 %ID/g
- tissue uptake at 5 min (read-out: Thymus uptake): 4.61 ± 0.51 %ID/g
- tissue uptake at 5 min (read-out: Tumor uptake): 7.06 ± 0.48 %ID/g
- tissue to tissue ratio at 5 min (read-out: Tumor/Muscle ratio): 4.12 ± 0.66
- tissue to tissue ratio at 5 min (read-out: Tumor/Pancreas ratio): 2.18 ± 0.14
- tissue to tissue ratio at 5 min (read-out: Tumor/blood ratio): 0.89 ± 0.14
- tissue uptake at 0.5 h (read-out: Blood uptake): 1.61 ± 0.18 %ID/g
- tissue uptake at 0.5 h (read-out: Brain uptake): 0.09 ± 0.01 %ID/g
- tissue uptake at 0.5 h (read-out: Heart uptake): 0.97 ± 0.15 %ID/g
- tissue uptake at 0.5 h (read-out: Liver uptake): 1.15 ± 0.19 %ID/g
- tissue uptake at 0.5 h (read-out: Lung uptake): 2.29 ± 0.26 %ID/g
- tissue uptake at 0.5 h (read-out: Muscle uptake): 1.11 ± 0.34 %ID/g
- tissue uptake at 0.5 h (read-out: Pancreas uptake): 0.74 ± 0.1 %ID/g
- tissue uptake at 0.5 h [1]: 0.77 ± 0.31 %ID/g
- tissue uptake at 0.5 h (read-out: Thymus uptake): 2.35 ± 0.66 %ID/g
- tissue uptake at 0.5 h (read-out: Tumor uptake): 6.96 ± 0.31 %ID/g
- tissue to tissue ratio at 0.5 h (read-out: Tumor/Muscle ratio): 6.4 ± 3.6
- tissue to tissue ratio at 0.5 h (read-out: Tumor/Pancreas ratio): 7.08 ± 2.57
- tissue to tissue ratio at 0.5 h (read-out: Tumor/blood ratio): 3.31 ± 1.17
- tissue uptake at 1 h (read-out: Blood uptake): 0.49 ± 0.07 %ID/g
- tissue uptake at 1 h (read-out: Brain uptake): 0.04 ± 0.01 %ID/g
- tissue uptake at 1 h (read-out: Heart uptake): 0.29 ± 0.08 %ID/g
- tissue uptake at 1 h (read-out: Liver uptake): 0.32 ± 0.02 %ID/g
- tissue uptake at 1 h (read-out: Lung uptake): 0.65 ± 0.04 %ID/g
- tissue uptake at 1 h (read-out: Muscle uptake): 0.21 ± 0.05 %ID/g
- tissue uptake at 1 h (read-out: Pancreas uptake): 0.16 ± 0.01 %ID/g
- tissue uptake at 1 h [1]: 0.15 ± 0.03 %ID/g
- tissue uptake at 1 h (read-out: Tumor uptake): 4.68 ± 0.25 %ID/g
- tissue to tissue ratio at 1 h (read-out: Tumor/Muscle ratio): 25.8 ± 6.71
- tissue to tissue ratio at 1 h (read-out: Tumor/Pancreas ratio): 28.8 ± 0.97
- tissue to tissue ratio at 1 h (read-out: Tumor/blood ratio): 9.86 ± 1.1
- tissue uptake at 1.5 h (read-out: Blood uptake): 1.18 ± 0.27 %ID/g
- tissue uptake at 1.5 h (read-out: Brain uptake): 0.05 ± 0.01 %ID/g
- tissue uptake at 1.5 h (read-out: Femur uptake): 0.68 ± 0.11 %ID/g
- tissue uptake at 1.5 h (read-out: Heart uptake): 0.76 ± 0.13 %ID/g
- tissue uptake at 1.5 h (read-out: Liver uptake): 0.9 ± 0.17 %ID/g
- tissue uptake at 1.5 h (read-out: Lung uptake): 1.4 ± 0.27 %ID/g
- tissue uptake at 1.5 h (read-out: Muscle uptake): 0.37 ± 0.11 %ID/g
- tissue uptake at 1.5 h (read-out: Pancreas uptake): 0.57 ± 0.15 %ID/g
- tissue uptake at 1.5 h [1]: 0.27 ± 0.06 %ID/g
- tissue uptake at 1.5 h (read-out: Thymus uptake): 1.64 ± 0.42 %ID/g
- tissue uptake at 1.5 h (read-out: Tumor uptake): 6.04 ± 1.46 %ID/g
- tissue to tissue ratio at 1.5 h (read-out: Tumor/Muscle ratio): 17 ± 2.11
- tissue to tissue ratio at 1.5 h (read-out: Tumor/Pancreas ratio): 10.7 ± 0.2
- tissue to tissue ratio at 1.5 h (read-out: Tumor/blood ratio): 5.43 ± 1.32
- tissue uptake at 2 h (read-out: Blood uptake): 0.9 ± 0.29 %ID/g
- tissue uptake at 2 h (read-out: Brain uptake): 0.05 ± 0.01 %ID/g
- tissue uptake at 2 h (read-out: Femur uptake): 0.83 ± 0.33 %ID/g
- tissue uptake at 2 h (read-out: Heart uptake): 0.68 ± 0.17 %ID/g
- tissue uptake at 2 h (read-out: Liver uptake): 0.84 ± 0.13 %ID/g
- tissue uptake at 2 h (read-out: Lung uptake): 1.15 ± 0.22 %ID/g
- tissue uptake at 2 h (read-out: Muscle uptake): 0.26 ± 0.04 %ID/g

Source: PMC11984392, “EphA2-targeted alpha-particle theranostics for enhancing PDAC treatment” (Theranostics, 2025)
